Measured values as given in PubChem BioAssay AID179 (DTP/NCI, 2004).
“And” between values parts separate entries of the source, which are not always exact repeats. Equal values may be shown once. The source made the active and inactive calls.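 Rule for the calls: active = compounds giving half or more protection of infected cells from virus-caused growth loss, again on retest; inactive = the rest.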

Test system: CEM cells HIV-1 protection, formazan growth assay
Assay: NCI AIDS Antiviral Assay
Conditions: for IC50: measured here: growth of uninfected CEM cells
How it was run: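 Human CEM cells, uninfected and HIV-1-infected, received five drug concentrations, and growth was read by soluble formazan assay. Compounds giving at least 50% protection were retested; reproducible 100% protection defined confirmed active.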

Q: For `O=c1[nH]c(O)c(/C=N/C(=S)Nc2ccccc2)c(=O)[nH]1`, which outcome is on record?
A: inactive

Q: Which EC50 does the source give for `Nc1ccc(S(=O)(=O)Cc2ccc(C(=O)O)cc2)cc1` here?
A: > 324 µM

Q: And the IC50?
A: > 324 µM

Q: With `O=C1CSC(c2ccc(Cl)cc2)N1N1C(=O)CSC1c1ccc(Cl)cc1` (stereo not given) as the molecule, how does the EC50 read?
A: > 151 µM

Q: And the IC50?
A: > 151 µM

Q: Which results are given for `CC(=O)N[C@]1(C)CCC2C[C@H]1C(C)=NC2(C)C`?
A: EC50: > 1050 µM; IC50: > 1050 µM

Q: How did the EC50 turn out when `Cn1nc(-c2ccccc2)c(C(=O)/C=C/c2ccc(F)cc2)c(N2CCCC2)c1=O` was run?
A: 26.3 µM

Q: What about the IC50 of the same molecule?
A: 36.3 µM

Q: `Cc1cccc(-c2cc(=O)c3cc(C)c(C)c(C(=O)O)c3o2)c1` was tested. Which outcome did it give?
A: inactive

Q: Which EC50 does the source give for `O=C1/C(=C/c2cccs2)NC(=S)N1CN1CCCC(CO)C1` (stereo not given) here?
A: > 200 µM

Q: And the IC50?
A: 44.7 µM

Q: For `N#Cc1ccccc1NC(=O)C(=O)C1NC(=S)NC1=O` (stereo not given), which outcome is on record?
A: inactive

Q: Which results are given for `CCOC(=O)c1ccc(C(=O)/C(C(C)=O)=C2\CCCN2C)n1C`?
A: EC50: 89.1 µM; IC50: 174 µM

Q: `CC(C)/C(Cl)=N\OC(NC(=O)P(=O)(c1ccccc1)c1ccccc1)(C(F)(F)F)C(F)(F)F` was tested. Which EC50 did it give?
A: > 200 µM

Q: What about the IC50 of the same molecule?
A: 10.5 µM

Q: How did the EC50 turn out when `COC(=O)C1=COC2OC3/C(=C\c4ccc(O)c(OC)c4)C(=O)OC34C=CC1C24` (stereo not given) was run?
A: > 200 µM

Q: What about the IC50 of the same molecule?
A: 24 µM

Q: What does the source list for `Nc1c(S(=O)(=O)c2ccccc2)c2nc3ccccc3nc2n2c1nc1ccccc12`?
A: EC50: > 8.91 µM; IC50: > 8.91 µM

Q: With `Cc1ccc(S(=O)(=O)c2[nH]cc(-c3c[nH]c(S(=O)(=O)c4ccc(C)cc4)c3C3CCCCC3)c2C2CCCCC2)cc1` as the molecule, how does the outcome read?
A: inactive

Q: `O=C1CC2(CCN(CC3COc4ccccc4O3)CC2)C(=O)N1N1CCCCCC1` (stereo not given) was tested. Which EC50 did it give?
A: > 200 µM

Q: And the IC50?
A: 72.4 µM

Q: With `OC(c1ccccc1)(c1cccnc1)C(O)(c1ccccc1)c1cccnc1` (stereo not given) as the molecule, how does the EC50 read?
A: > 200 µM

Q: And the IC50?
A: > 200 µM

Q: `O=c1[nH]c(-c2nc3ccccc3c(=O)[nH]2)nc2ccccc12` was tested. Which EC50 did it give?
A: > 32.4 µM

Q: What about the IC50 of the same molecule?
A: > 32.4 µM

Q: With `CSc1nnc(SCc2nn3c(=O)cc(C)nc3s2)s1` as the molecule, how does the EC50 read?
A: > 200 µM

Q: What about the IC50 of the same molecule?
A: > 200 µM

Q: What does the source list for `O=C1CC(c2ccc(O)c(O)c2)c2cc(O)c3c(c2O1)C[C@@H](O)[C@@H](c1ccc(O)c(O)c1)O3` (stereo not given in full)?
A: EC50: > 200 µM; IC50: 15.8 µM

Q: For `CN1C(=O)NC2ON=C(c3ccccc3)C2C1=O` (stereo not given), which EC50 is on record?
A: > 200 µM

Q: And the IC50?
A: 53.7 µM

Q: For `NC(CS)=NC1CCCCC1`, which EC50 is on record?
A: > 200 µM

Q: And the IC50?
A: 107 µM

Q: For `C=C(C)[C@@H]1CC[C@]2(COC(=O)CC(C)(CC)CC(=O)O)CC[C@]3(C)[C@H](CC[C@@H]4[C@@]5(C)CC[C@H](OC(=O)CC(C)(CC)CC(=O)O)C(C)(C)[C@@H]5CC[C@]43C)[C@@H]12` (stereo not given in full), which EC50 is on record?
A: > 200 µM

Q: What about the IC50 of the same molecule?
A: 9.55 µM

Q: What does the source list for `CC(CC[C@@]1(C)C(=O)CCC2O[C@]21C)[C@H]1C[C@@H](c2ccoc2)OC1=O` (stereo not given in full)?
A: EC50: > 200 µM; IC50: 34.7 µM

Q: Which EC50 does the source give for `Nc1n[nH]c(N)n1` here?
A: > 2510 µM

Q: And the IC50?
A: > 200 µM and 282 µM

Q: With `COC(=O)[C@]1(C)CCC[C@]2(C)C3CC4OOC3(C=C4C(C)C)CCC21` (stereo not given in full) as the molecule, how does the EC50 read?
A: > 251 µM

Q: What about the IC50 of the same molecule?
A: 11.5 µM

Q: For `CCCC[n+]1ccn(-c2nc3ccccc3n2C)c1`, which outcome is on record?
A: inactive

Q: Which results are given for `C[N+]1=C2[B-](C(C)(C)C)=[N+](C(C)(C)C)[B-]2(C(C)(C)C)[N+](C)=C2[B-](C(C)(C)C)=[N+](C(C)(C)C)[B-]21C(C)(C)C` (stereo not given)?
A: EC50: > 50.1 µM; IC50: > 50.1 µM

Q: `O=c1ccc2cc([N+](=O)[O-])ccc2o1` was tested. Which EC50 did it give?
A: > 646 µM

Q: What about the IC50 of the same molecule?
A: 363 µM

Q: With `O=C1NC(=S)S/C1=C\c1ccc2c(c1)OCO2` as the molecule, how does the EC50 read?
A: > 200 µM

Q: And the IC50?
A: 85.1 µM

Q: `N/C1=C/C(=O)NC(=O)c2c(c3ccccc3oc2=O)C1` was tested. Which EC50 did it give?
A: > 200 µM

Q: And the IC50?
A: > 200 µM

Q: For `Oc1ccc(C2O[C@H](c3ccc(O)cc3)C(c3cc(O)cc(O)c3)C2c2cc(O)cc3c2C(c2cc(O)cc4c2C(c2cc(O)cc(O)c2)[C@H](c2ccc(O)cc2)O4)[C@@H](c2ccc(O)cc2)O3)cc1` (stereo not given in full), which EC50 is on record?
A: 36.3 µM

Q: What about the IC50 of the same molecule?
A: 214 µM

Q: `O=C1C=CC(=O)C2C1C1CC3C=CC312` (stereo not given) was tested. Which EC50 did it give?
A: > 1350 µM

Q: And the IC50?
A: > 1350 µM

Q: Which EC50 does the source give for `Cc1cc(N(CCC#N)CCC#N)ccc1N=Nc1ccc(C(=O)O)cc1` here?
A: > 100 µM

Q: And the IC50?
A: > 100 µM

Q: Which results are given for `O=C1Cc2ccccc2CCc2ccsc21`?
A: EC50: 64.6 µM; IC50: 83.2 µM

Q: Which EC50 does the source give for `CC1N=C(SCc2ccc(Cl)cc2)N2C(C)N=C(SCc3ccc(Cl)cc3)N12` (stereo not given) here?
A: > 21.9 µM

Q: And the IC50?
A: > 21.9 µM

Q: For `S=C(NCCc1ccccn1)c1nc[nH]c1C(=S)NCCc1ccccn1`, which EC50 is on record?
A: > 200 µM

Q: What about the IC50 of the same molecule?
A: 19.1 µM

Q: For `O=C(N[C@@H](CSSC[C@H](NC(=O)OCc1ccccc1)C(=O)O)C(=O)O)OCc1ccccc1`, which EC50 is on record?
A: > 200 µM

Q: What about the IC50 of the same molecule?
A: 74.1 µM

Q: What does the source list for `O=C1OC2C(O)COC23OC(O)CCC13O` (stereo not given)?
A: EC50: > 200 µM; IC50: > 200 µM

Q: With `CN(C)c1ccc(/C=C(\C#N)c2cccc(Br)c2)cc1` as the molecule, how does the EC50 read?
A: > 200 µM

Q: And the IC50?
A: 0.0631 µM

Q: Which EC50 does the source give for `CCOc1cc2c(cc1C(C)c1ccc(OC)cc1)OCO2` (stereo not given) here?
A: > 33.1 µM

Q: What about the IC50 of the same molecule?
A: 0.214 µM

Q: What does the source list for `COc1ccc2nc3c([N+](=O)[O-])ccc(NCCN(C)C)c3c(N)c2c1`?
A: EC50: > 200 µM; IC50: 0.794 µM

Q: With `CCCCCCCC/C=C/CCCCCCCC1CC(O)C(=O)O1` (stereo not given) as the molecule, how does the EC50 read?
A: > 200 µM

Q: And the IC50?
A: 191 µM

Q: Which EC50 does the source give for `O=C1Nc2ccccc2N=CC1NC(=O)C(c1ccccc1)c1ccccc1` (stereo not given) here?
A: > 257 µM

Q: What about the IC50 of the same molecule?
A: 224 µM

Q: For `N#CC(C#N)N=Cc1ccncc1`, which EC50 is on record?
A: > 200 µM

Q: And the IC50?
A: 170 µM

Q: `COc1ccc2c(c1O)C1=CC(=O)CC[C@]13CCN(C)[C@H]3C2` was tested. Which EC50 did it give?
A: > 832 µM

Q: What about the IC50 of the same molecule?
A: 661 µM

Q: What does the source list for `O=C(Nc1nc2ccc([N+](=O)[O-])cc2s1)C(=O)C(C(=O)c1ccccc1F)C1OC(=O)c2ccccc21` (stereo not given)?
A: EC50: > 132 µM; IC50: 18.2 µM

Q: Which results are given for `O=C1CC(=O)NC(=NN2C(=O)CSC2c2ccc(Cl)c(Cl)c2)N1` (stereo not given)?
A: EC50: > 200 µM; IC50: 102 µM

Q: Which EC50 does the source give for `O=C(O)C(=Cc1ccc(-c2ccccc2)cc1)C(=O)O` here?
A: > 251 µM

Q: And the IC50?
A: 15.5 µM

Q: Which EC50 does the source give for `O=[N+]([O-])c1ccc(N=Nc2ccc3c(c2)-c2ccccc2C3=P(c2ccccc2)(c2ccccc2)c2ccccc2)cc1` here?
A: > 200 µM

Q: And the IC50?
A: 33.1 µM

Q: Which EC50 does the source give for `O=C1COc2cccnc2N1CCCCO` here?
A: > 200 µM

Q: What about the IC50 of the same molecule?
A: > 200 µM

Q: `CC1(C)O[C@H]2Cn3c(c(C#N)c4ccccc43)[C@H]2O1` was tested. Which EC50 did it give?
A: > 200 µM

Q: And the IC50?
A: 178 µM

Q: For `C=C(Br)CNC(=O)Nc1ccccn1`, which EC50 is on record?
A: > 200 µM

Q: What about the IC50 of the same molecule?
A: > 200 µM

Q: `O=C1c2cc(Cl)ccc2-n2cnnc2C2CSCN12` (stereo not given) was tested. Which EC50 did it give?
A: > 200 µM

Q: And the IC50?
A: > 200 µM

Q: How did the outcome turn out when `CC1=C(Br)CC23C(C1)OC(Br)(C=CC2(C)O)C3(C)C` (stereo not given) (tested in a mixture with another compound) was run?
A: inactive

Q: With `CC1=C(C(=O)NCc2ccccc2)C(c2ccc(C3C(C(=O)NCc4ccccc4)=C(C)NC(C)=C3C(=O)NCc3ccccc3)cc2)C(C(=O)NCc2ccccc2)=C(C)N1` as the molecule, how does the EC50 read?
A: > 12 µM

Q: What about the IC50 of the same molecule?
A: 7.94 µM

Q: Which EC50 does the source give for `Cc1ccc2c(c1)NC(=S)N=S2(C)=O` (stereo not given) here?
A: > 158 µM

Q: What about the IC50 of the same molecule?
A: 93.3 µM

Q: `O=C1CSC2=NC3=C(COC/C3=C\c3ccc(F)cc3)C(c3ccc(F)cc3)N12` (stereo not given) was tested. Which outcome did it give?
A: inactive

Q: For `CCOc1ccncc1[N+](=O)[O-]`, which EC50 is on record?
A: > 200 µM

Q: What about the IC50 of the same molecule?
A: > 200 µM

Q: Which results are given for `O=C1CCCCCCCCCCC1CCCCCBr` (stereo not given)?
A: EC50: > 200 µM; IC50: 57.5 µM

Q: How did the EC50 turn out when `CN(C)c1ccc(/C=C/c2ccnc3c2ccc2ccccc23)cc1` was run?
A: > 22.4 µM

Q: And the IC50?
A: 13.5 µM

Q: Which EC50 does the source give for `COC1/C=C/OC2(C)Oc3c(C)c(O)c4c(O)c(c(C=NN5C(C)CN(Cc6ccc(Cl)cc6)CC5C)c(O)c4c3C2=O)NC(=O)/C(C)=C/C=C/C(C)C(O)C(C)C(O)C(C)C(OC(C)=O)C1C` (stereo not given) here?
A: > 200 µM

Q: What about the IC50 of the same molecule?
A: 6.17 µM

Q: Which EC50 does the source give for `CCOC(=O)CCCN(c1sc(C)c(-c2ccccc2)c1C(=O)OCC)S(=O)(=O)c1ccc(C)cc1` here?
A: > 200 µM

Q: What about the IC50 of the same molecule?
A: 3.98 µM
